Data published in patent US20260137703A1, “2-AMINO-PYRIDO[2,3-D]PYRIMIDIN-7(8H)-ONE AND 7-AMINO-1-PYRIMIDO[4,5-D]PYRIMIDIN-2(1 H)-ONE DERIVATIVES AS EGFR INHIBITORS FOR THE TREATMENT OF CANCER” (Cancer Research Technology Limited, priority 2022, published 2026).

Assays:
[1] = biological target: T1, Phospho-EGFR (Tyr1068) in H1975 cells (Homo sapiens, UniProt P00533, L858R/T790M); assay: HTRF pEGFR/total EGFR in H1975 cells; format: cell-based; details: ratio pEGFR/total EGFR, compound 3 hours
T1 construct: host or cells: H1975
Outline: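 Readout is the phospho-EGFR (Tyr1068) to total EGFR HTRF ratio, expressed relative to 0 μM control. Adhered H1975 cells were exposed to compound for 3 hours at 0.1% DMSO, duplicate wells, then lysed for 30 min at room temperature before two-wavelength fluorescence reading.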

[2] = biological target: T2, Phospho-EGFR (Tyr1068) in H1975 C797S cells (CRISPR-edited EGFR C797S) (Homo sapiens, UniProt P00533, C797S/L858R/T790M); assay: HTRF pEGFR/total EGFR in H1975 C797S cells; format: cell-based; details: ratio pEGFR/total EGFR, compound 3 hours
T2 construct: host or cells: H1975 C797S (CRISPR-edited)
Outline: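 Readout is the HTRF-measured Tyr1068 phospho-EGFR to total EGFR ratio, normalised to the 0 μM control as percent. Preceding this, CRISPR-edited H1975 C797S cells, plated 24 h earlier, were exposed 3 h to duplicate compound doses in medium with 0.1% DMSO, then lysed on a shaker.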

[3] = biological target: T3, Phospho-EGFR (Tyr1068) in A431 cells (Homo sapiens, UniProt P00533); assay: HTRF pEGFR/total EGFR in A431 cells with EGF stimulation; format: cell-based; details: ratio pEGFR/total EGFR, compound 2.5 hours then 100 ng/ml EGF 30 mins
T3 construct: endogenous in cells; host or cells: A431
Outline: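 Values are pEGFR(Tyr1068)/total EGFR HTRF ratios (665/620 nm) given as percent of the 0 μM control. Adhered A431 cells (20,000 per well, 24 h) had 2.5 h compound pretreatment in 0.1% DMSO, then 30 min of 100 ng/ml EGF before lysis.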

[4] = biological target: CtermHisTag-mEGFR Wild type (Homo sapiens, UniProt P00533); assay: biochemical
Chain of CtermHisTag-mEGFR Wild type (P00533 whole entry): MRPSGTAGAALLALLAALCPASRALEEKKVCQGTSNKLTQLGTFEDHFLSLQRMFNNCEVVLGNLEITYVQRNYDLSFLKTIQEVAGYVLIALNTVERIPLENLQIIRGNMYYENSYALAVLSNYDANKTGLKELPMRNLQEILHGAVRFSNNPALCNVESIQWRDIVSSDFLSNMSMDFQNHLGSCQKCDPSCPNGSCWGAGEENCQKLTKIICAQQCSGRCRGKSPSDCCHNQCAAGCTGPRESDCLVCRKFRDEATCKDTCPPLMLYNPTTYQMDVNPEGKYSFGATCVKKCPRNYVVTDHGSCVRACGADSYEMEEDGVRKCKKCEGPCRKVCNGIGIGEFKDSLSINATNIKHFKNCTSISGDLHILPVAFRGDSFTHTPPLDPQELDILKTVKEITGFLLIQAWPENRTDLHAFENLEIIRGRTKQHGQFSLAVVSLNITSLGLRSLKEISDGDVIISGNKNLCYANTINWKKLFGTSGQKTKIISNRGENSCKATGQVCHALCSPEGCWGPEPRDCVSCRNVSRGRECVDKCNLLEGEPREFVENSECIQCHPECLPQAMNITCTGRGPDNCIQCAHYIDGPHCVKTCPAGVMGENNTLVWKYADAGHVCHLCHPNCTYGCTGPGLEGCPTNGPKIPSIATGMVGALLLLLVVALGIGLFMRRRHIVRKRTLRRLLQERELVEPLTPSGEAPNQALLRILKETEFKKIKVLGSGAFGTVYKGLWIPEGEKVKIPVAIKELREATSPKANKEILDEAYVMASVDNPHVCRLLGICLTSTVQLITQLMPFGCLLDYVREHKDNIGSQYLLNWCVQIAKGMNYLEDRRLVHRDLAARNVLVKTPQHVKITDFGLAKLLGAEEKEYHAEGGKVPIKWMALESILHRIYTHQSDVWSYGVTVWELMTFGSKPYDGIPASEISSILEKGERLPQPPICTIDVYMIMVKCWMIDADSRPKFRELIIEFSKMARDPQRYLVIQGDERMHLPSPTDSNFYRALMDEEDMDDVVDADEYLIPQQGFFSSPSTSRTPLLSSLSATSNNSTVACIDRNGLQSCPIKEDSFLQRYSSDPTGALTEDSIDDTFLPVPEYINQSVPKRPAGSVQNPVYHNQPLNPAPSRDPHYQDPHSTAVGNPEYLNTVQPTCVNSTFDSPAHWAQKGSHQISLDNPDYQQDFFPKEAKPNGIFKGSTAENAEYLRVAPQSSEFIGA

T2 sequence (P00533 25-1210 T790M/C797S/L858R): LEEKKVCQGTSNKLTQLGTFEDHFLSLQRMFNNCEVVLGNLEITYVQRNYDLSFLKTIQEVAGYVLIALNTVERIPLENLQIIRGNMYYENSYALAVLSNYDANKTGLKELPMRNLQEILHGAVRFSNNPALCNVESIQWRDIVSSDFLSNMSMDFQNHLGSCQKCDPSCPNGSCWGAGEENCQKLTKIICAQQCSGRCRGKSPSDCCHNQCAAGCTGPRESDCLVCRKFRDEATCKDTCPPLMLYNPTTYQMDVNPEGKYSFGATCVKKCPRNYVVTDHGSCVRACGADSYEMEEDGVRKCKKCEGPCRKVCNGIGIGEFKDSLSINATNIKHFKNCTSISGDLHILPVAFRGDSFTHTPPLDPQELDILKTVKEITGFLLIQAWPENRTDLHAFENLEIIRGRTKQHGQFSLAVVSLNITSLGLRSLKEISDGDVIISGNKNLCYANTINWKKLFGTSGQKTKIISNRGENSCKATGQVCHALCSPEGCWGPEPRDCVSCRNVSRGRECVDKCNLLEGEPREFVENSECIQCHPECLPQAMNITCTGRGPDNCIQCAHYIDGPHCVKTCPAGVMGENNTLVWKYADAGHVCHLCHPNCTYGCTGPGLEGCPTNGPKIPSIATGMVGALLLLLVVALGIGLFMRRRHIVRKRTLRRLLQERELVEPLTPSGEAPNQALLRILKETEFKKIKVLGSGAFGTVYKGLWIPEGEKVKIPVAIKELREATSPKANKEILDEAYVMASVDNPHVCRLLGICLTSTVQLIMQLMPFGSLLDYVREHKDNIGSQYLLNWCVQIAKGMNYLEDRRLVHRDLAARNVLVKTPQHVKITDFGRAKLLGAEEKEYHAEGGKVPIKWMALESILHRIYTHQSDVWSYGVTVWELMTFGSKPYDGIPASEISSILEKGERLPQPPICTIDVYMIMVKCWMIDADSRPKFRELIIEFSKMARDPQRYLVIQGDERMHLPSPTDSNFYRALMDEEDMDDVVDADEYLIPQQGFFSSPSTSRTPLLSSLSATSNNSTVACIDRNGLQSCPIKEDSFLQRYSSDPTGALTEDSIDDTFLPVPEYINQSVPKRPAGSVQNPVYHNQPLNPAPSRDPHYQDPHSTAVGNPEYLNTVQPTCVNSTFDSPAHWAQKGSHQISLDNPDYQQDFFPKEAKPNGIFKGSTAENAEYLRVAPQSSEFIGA
T1 sequence (P00533 25-1210 T790M/L858R): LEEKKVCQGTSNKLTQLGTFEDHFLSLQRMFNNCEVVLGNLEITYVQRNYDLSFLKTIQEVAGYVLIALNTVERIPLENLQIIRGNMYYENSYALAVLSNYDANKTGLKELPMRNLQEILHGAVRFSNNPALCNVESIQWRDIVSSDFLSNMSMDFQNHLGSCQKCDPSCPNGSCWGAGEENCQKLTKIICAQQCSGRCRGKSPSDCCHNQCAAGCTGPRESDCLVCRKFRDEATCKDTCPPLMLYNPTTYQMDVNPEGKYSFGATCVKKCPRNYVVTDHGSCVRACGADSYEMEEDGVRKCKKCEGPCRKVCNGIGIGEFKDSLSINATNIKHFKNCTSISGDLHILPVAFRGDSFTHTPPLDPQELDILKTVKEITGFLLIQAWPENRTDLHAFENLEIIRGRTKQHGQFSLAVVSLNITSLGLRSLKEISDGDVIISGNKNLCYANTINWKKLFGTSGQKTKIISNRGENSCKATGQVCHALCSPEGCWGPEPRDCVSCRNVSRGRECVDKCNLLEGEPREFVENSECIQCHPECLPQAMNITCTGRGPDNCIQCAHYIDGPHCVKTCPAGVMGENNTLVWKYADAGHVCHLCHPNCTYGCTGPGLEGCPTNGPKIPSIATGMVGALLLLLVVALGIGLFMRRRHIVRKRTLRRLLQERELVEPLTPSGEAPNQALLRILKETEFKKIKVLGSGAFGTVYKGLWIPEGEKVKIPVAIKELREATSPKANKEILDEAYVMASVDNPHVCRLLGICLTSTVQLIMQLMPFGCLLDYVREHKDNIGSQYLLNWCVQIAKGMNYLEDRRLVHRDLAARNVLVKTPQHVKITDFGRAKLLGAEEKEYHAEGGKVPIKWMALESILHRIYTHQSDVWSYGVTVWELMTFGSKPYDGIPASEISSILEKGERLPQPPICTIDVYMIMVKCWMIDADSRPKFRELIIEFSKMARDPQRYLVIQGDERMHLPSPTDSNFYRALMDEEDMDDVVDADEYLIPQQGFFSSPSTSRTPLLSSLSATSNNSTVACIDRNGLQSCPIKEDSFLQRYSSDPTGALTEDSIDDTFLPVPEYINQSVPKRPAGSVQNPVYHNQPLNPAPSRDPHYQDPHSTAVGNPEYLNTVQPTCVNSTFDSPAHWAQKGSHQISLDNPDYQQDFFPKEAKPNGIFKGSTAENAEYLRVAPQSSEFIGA
T3 sequence (P00533 25-1210): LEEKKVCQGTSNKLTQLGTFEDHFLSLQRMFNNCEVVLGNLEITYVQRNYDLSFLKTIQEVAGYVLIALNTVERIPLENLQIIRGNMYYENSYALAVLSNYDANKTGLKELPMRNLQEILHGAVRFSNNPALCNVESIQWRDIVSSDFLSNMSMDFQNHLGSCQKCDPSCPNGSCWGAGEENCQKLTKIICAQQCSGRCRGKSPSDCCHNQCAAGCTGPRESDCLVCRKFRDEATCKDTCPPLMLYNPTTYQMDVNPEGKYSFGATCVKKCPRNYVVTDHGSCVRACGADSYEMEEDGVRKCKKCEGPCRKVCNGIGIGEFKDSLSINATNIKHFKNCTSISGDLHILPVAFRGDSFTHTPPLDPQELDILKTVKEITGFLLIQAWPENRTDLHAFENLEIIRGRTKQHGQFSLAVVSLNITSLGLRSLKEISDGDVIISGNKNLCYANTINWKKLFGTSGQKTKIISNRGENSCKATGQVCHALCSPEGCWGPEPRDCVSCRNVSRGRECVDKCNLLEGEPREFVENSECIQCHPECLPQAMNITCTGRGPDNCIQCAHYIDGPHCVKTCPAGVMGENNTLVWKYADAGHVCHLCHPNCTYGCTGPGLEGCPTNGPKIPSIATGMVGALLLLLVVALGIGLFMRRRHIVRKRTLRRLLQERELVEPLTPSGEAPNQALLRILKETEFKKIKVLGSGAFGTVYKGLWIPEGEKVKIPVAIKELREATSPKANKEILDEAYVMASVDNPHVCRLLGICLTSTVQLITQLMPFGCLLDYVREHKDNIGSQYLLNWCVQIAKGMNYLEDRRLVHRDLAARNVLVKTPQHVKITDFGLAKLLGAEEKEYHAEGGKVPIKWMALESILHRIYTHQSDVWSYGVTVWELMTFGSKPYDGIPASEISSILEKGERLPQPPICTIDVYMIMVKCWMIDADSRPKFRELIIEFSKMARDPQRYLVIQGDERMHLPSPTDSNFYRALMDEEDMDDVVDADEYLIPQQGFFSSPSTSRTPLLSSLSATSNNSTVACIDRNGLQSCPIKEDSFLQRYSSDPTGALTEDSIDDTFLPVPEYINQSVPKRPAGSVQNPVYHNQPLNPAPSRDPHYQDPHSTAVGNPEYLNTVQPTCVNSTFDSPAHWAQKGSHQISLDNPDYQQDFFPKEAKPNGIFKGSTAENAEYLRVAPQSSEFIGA

SMILES: C#Cc1cc(=O)n(C2CCCC2)c2nc(Nc3cccc(CN4CCC(CS(C)(=O)=O)CC4)c3)ncc12 [Example 183]
- IC50 [1]: > 3000 nM
- IC50 [2]: > 3000 nM
- IC50 [3]: > 3000 nM
- IC50 [4]: > 10000 nM

SMILES: C#Cc1cc(=O)n([C@H]2CC[C@@H](NC(=O)CCN(C)C)CC2)c2nc(Nc3ccc(N4CCN(C)CC4)cc3)ncc12 [Example 96, 3-(Dimethylamino)-N-[(1s,4s)-4-(5-ethynyl-2-{[4-(4-methylpiperazin-1-yl)phenyl]amino}-7-oxopyrido[2,3-d]pyrimidin-8-yl)cyclohexyl]propanamide]
- IC50 [1]: 1000 to 3000 nM
- IC50 [2]: > 3000 nM
- IC50 [3]: > 3000 nM
- IC50 [4]: < 1000 nM

SMILES: C#Cc1cc(=O)n(C)c2nc(Nc3ccc(N(C)CCN(C)C)c(-c4cnn(C)c4)c3)ncc12 [Example 47, 2-[(4-{[2-(Dimethylamino)ethyl](methyl)amino}-3-(1-methylpyrazol-4-yl)phenyl)amino]-5-ethynyl-8-methylpyrido[2,3-d]pyrimidin-7-one]
- IC50 [1]: < 500 nM
- IC50 [2]: 500 to 1000 nM
- IC50 [3]: > 3000 nM
- IC50 [4]: < 1000 nM

SMILES: C#Cc1cc(=O)n2c3nc(ncc13)Nc1ccc(N3CCN(C)CC3)c(c1)OCCCCC2 [Example 200, 1^5-Ethynyl-34-(4-methylpiperazin-1-yl)-1^7,1^8-dihydro-4-oxa-2-aza-1(2,8)-pyrido[2,3-d]pyrimidina-3(1,3)-benzenacyclononaphan-17-one]
- IC50 [1]: < 500 nM
- IC50 [2]: < 500 nM
- IC50 [3]: < 500 nM
- IC50 [4]: < 1000 nM

SMILES: C=Cc1c(-c2ccccc2Cl)c(=O)n(C)c2nc(Nc3ccc(OCCN(C)C)cc3)ncc12 [Example 172, 6-(2-chlorophenyl)-2-({4-[2-(dimethylamino)ethoxy]phenyl}amino)-5-ethenyl-8-methylpyrido[2,3-d]pyrimidin-7-one]
- IC50 [1]: > 3000 nM
- IC50 [2]: > 3000 nM
- IC50 [3]: > 3000 nM
- IC50 [4]: > 10000 nM

SMILES: C#Cc1c(C)c(=O)n(Cc2ccno2)c2nc(Nc3ccc(N4CCN(C)CC4)cc3)ncc12 [Example 113, 5-ethynyl-6-methyl-2-{[4-(4-methylpiperazin-1-yl)phenyl]amino}-8-(1,2-oxazol-5-ylmethyl)pyrido[2,3-d]pyrimidin-7-one]
- IC50 [1]: 1000 to 3000 nM
- IC50 [2]: 1000 to 3000 nM
- IC50 [3]: 1000 to 3000 nM
- IC50 [4]: 1000 to 10000 nM

SMILES: C#Cc1cc(=O)n([C@H]2CC[C@@H](NC(=O)Cc3cn[nH]c3)CC2)c2nc(Nc3ccc(N4CCN(C)CC4)cc3)ncc12 [Example 91, 2-(1H-Pyrazol-4-yl)-N-[(1s,4s)-4-(5-ethynyl-2-{[4-(4-methylpiperazin-1-yl)phenyl]amino}-7-oxopyrido[2,3-d]pyrimidin-8-yl)cyclohexyl]acetamide]
- IC50 [1]: 500 to 1000 nM
- IC50 [2]: 1000 to 3000 nM
- IC50 [3]: > 3000 nM
- IC50 [4]: < 1000 nM

SMILES: C#Cc1c(C)c(=O)n(Cc2cnoc2)c2nc(Nc3ccc(N4CCN(C)CC4)cc3)ncc12 [Example 175, 5-Ethynyl-6-methyl-2-{[4-(4-methylpiperazin-1-yl)phenyl]aminol}-8-(1,2-oxazol-4-ylmethyl)pyrido[2,3-d]pyrimidin-7-one]
- IC50 [1]: > 3000 nM
- IC50 [2]: > 3000 nM
- IC50 [3]: > 3000 nM
- IC50 [4]: > 10000 nM

SMILES: C#Cc1cc(=O)n(C)c2nc(Nc3ccc(N4CCN(C)CC4)c(NC(C)=O)c3)ncc12 [Example 50, N-[5-({5-Ethynyl-8-methyl-7-oxopyrido[2,3-d]pyrimidin-2-yl}amino)-2-(4-methylpiperazin-1-yl)phenyl]acetamide]
- IC50 [1]: < 500 nM
- IC50 [2]: 500 to 1000 nM
- IC50 [3]: > 3000 nM
- IC50 [4]: < 1000 nM

SMILES: C#Cc1c(-c2ccccc2Cl)c(=O)n(C)c2nc(Nc3ccc(N(C)CCN(C)C)cc3)ncc12 [Example 126]
- IC50 [1]: 1000 to 3000 nM
- IC50 [2]: > 3000 nM
- IC50 [3]: 1000 to 3000 nM
- IC50 [4]: < 1000 nM

SMILES: C#Cc1cc(=O)n(-c2ccccc2)c2nc(Nc3ccc(N(C)CCCN(C)C)cc3)ncc12 [Example 9, 2-((4-((3-(Dimethylamino)propyl)(methyl)amino)phenyl)amino)-5-ethynyl-8-phenylpyrido[2,3-d]pyrimidin-7(8H)-one]
- IC50 [1]: < 500 nM
- IC50 [2]: < 500 nM
- IC50 [3]: > 3000 nM
- IC50 [4]: < 1000 nM

SMILES: C#Cc1c(Nc2ccccc2)c(=O)n(C)c2nc(Nc3ccc(N(C)CCN(C)C)cc3)ncc12 [Example 144, 2-[(4-{[2-(dimethylamino)ethyl](methyl)amino}phenyl)amino]-5-ethynyl-8-methyl-6-(phenylamino)pyrido[2,3-d]pyrimidin-7-one]
- IC50 [1]: 1000 to 3000 nM
- IC50 [2]: 1000 to 3000 nM
- IC50 [3]: < 500 nM
- IC50 [4]: < 1000 nM

SMILES: C#Cc1c(C)c(=O)n(Cc2cccnc2)c2nc(Nc3ccc(N4CCN(C)CC4)cc3)ncc12 [Example 116, 5-ethynyl-6-methyl-2-{[4-(4-methylpiperazin-1-yl)phenyl]amino}-8-(pyridin-3-ylmethyl)pyrido[2,3-d]pyrimidin-7-one]
- IC50 [1]: > 3000 nM
- IC50 [2]: > 3000 nM
- IC50 [3]: 1000 to 3000 nM
- IC50 [4]: 1000 to 10000 nM

SMILES: C#Cc1cc(=O)n(C)c2nc(Nc3ccc(N4CCN(C)CC4)c(S(=O)(=O)NCC4CCCC4)c3)ncc12 [Example 218]
- IC50 [1]: 1000 to 3000 nM
- IC50 [2]: > 3000 nM
- IC50 [3]: > 3000 nM
- IC50 [4]: < 1000 nM

SMILES: C#Cc1c(C)c(=O)n([C@H]2CC[C@H](NC(C)=O)CC2)c2nc(Nc3ccc(N4CCN(C)CC4)cc3)ncc12 [Example 102, N-[(1r,4r)-4-(5-Ethynyl-6-methyl-2-{[4-(4-methylpiperazin-1-yl)phenyl]amino}-7-oxopyrido[2,3-d]pyrimidin-8-yl)cyclohexyl]acetamide]
- IC50 [1]: 1000 to 3000 nM
- IC50 [2]: 1000 to 3000 nM
- IC50 [3]: 1000 to 3000 nM
- IC50 [4]: 1000 to 10000 nM

SMILES: C#Cc1cc(=O)n2c3nc(ncc13)Nc1ccc(N3CCN(C)CC3)c(c1)CN(C)C(=O)CC2 [Example 223, 1^5-Ethynyl-5-methyl-3^4-(4-methylpiperazin-1-yl)-1^7,1^8-dihydro-2,5-diaza-1(2,8)-pyrido[2,3-d]pyrimidina-3(1,3)-benzenacyclooctaphane-1^7,6-dione]
- IC50 [1]: < 500 nM
- IC50 [2]: < 500 nM
- IC50 [3]: 1000 to 3000 nM
- IC50 [4]: < 1000 nM

SMILES: C#Cc1cc(=O)n(-c2ccccc2)c2nc(Nc3ccc(N4CCN(CC)CC4)cc3)ncc12 [Example 15, 2-{[4-(4-Ethylpiperazin-1-yl)phenyl]amino}-5-ethynyl-8-phenylpyrido[2,3-d]pyrimidin-7-one]
- IC50 [1]: < 500 nM
- IC50 [2]: < 500 nM
- IC50 [3]: > 3000 nM
- IC50 [4]: < 1000 nM

SMILES: C#Cc1cc(=O)n2c3nc(ncc13)Nc1cccc(c1)OC[C@H]1CC[C@H](C1)C2 [Example 192, (5^1R,5^3S)-3^5-ethynyl-3^7,3^8-dihydro-7-oxa-2-aza-3(2,8)-pyrido[2,3-d]pyrimidina-1(1,3)-benzena-5(1,3)-cyclopentanacycloheptaphan-3^7-one]
- IC50 [1]: 500 to 1000 nM
- IC50 [2]: 500 to 1000 nM
- IC50 [3]: > 3000 nM
- IC50 [4]: > 10000 nM

SMILES: C#Cc1cc(=O)n(C2CCOCC2)c2nc(Nc3ccc(N4CCN(C)CC4)cc3)ncc12 [Example 69, 5-Ethynyl-2-((4-(4-methylpiperazin-1-yl)phenyl)amino)-8-(tetrahydro-2H-pyran-4-yl)pyrido[2,3-d]pyrimidin-7(8H)-one]
- IC50 [1]: < 500 nM
- IC50 [2]: 1000 to 3000 nM
- IC50 [3]: > 3000 nM
- IC50 [4]: < 1000 nM

SMILES: C#Cc1cc(=O)n(CC2CCCO2)c2nc(Nc3ccc(N4CCN(C)CC4)cc3)ncc12 (stereo not drawn) [Example 72, 5-Ethynyl-2-((4-(4-methylpiperazin-1-yl)phenyl)amino)-8-((tetrahydrofuran-2-yl)methyl)pyrido[2,3-d]pyrimidin-7(8H)-one]
- IC50 [1]: 500 to 1000 nM
- IC50 [2]: < 500 nM
- IC50 [3]: > 3000 nM
- IC50 [4]: < 1000 nM

SMILES: C#Cc1cc(=O)n(C)c2nc(Nc3ccc(N4CCN(C)CC4)c(OCCC4CCCCC4)c3)ncc12 [Example 213, 2-((3-(2-Cyclohexylethoxy)-4-(4-methylpiperazin-1-yl)phenyl)amino)-5-ethynyl-8-methylpyrido[2,3-d]pyrimidin-7(8H)-one]
- IC50 [1]: < 500 nM
- IC50 [2]: 500 to 1000 nM
- IC50 [3]: 1000 to 3000 nM
- IC50 [4]: < 1000 nM

SMILES: C#Cc1cc(=O)n(C)c2nc(Nc3ccc(N4CCN(C)CC4)c(OCC4CCCC4)c3)ncc12 [Example 211, 2-((3-(Cyclopentylmethoxy)-4-(4-methylpiperazin-1-yl)phenyl)amino)-5-ethynyl-8-methylpyrido[2,3-d]pyrimidin-7(8H)-one]
- IC50 [1]: < 500 nM
- IC50 [2]: < 500 nM
- IC50 [3]: > 3000 nM
- IC50 [4]: < 1000 nM

SMILES: C#Cc1cc(=O)n(-c2ccccc2)c2nc(Nc3ccc(N4CCNC(C)C4)cc3)ncc12 (stereo not drawn) [Example 27, 5-Ethynyl-2-{[4-(3-methylpiperazin-1-yl)phenyl]amino}-8-phenylpyrido[2,3-d]pyrimidin-7-one]
- IC50 [1]: < 500 nM
- IC50 [2]: < 500 nM
- IC50 [3]: 1000 to 3000 nM
- IC50 [4]: < 1000 nM

SMILES: C#Cc1c(-c2ccccc2Cl)c(=O)n(C)c2nc(Nc3cccc(CO)c3)ncc12 [Example 132, 6-(2-chlorophenyl)-5-ethynyl-2-{[3-(hydroxymethyl)phenyl]amino}-8-methylpyrido[2,3-]pyrimidin-7-one]
- IC50 [1]: 500 to 1000 nM
- IC50 [2]: 1000 to 3000 nM
- IC50 [3]: 1000 to 3000 nM
- IC50 [4]: < 1000 nM
